Source: US20040138237A1, “Novel injectable depot formulations” (Pfizer Inc, priority 2002, published 2004)

Assay: Solubilization of ziprasidone mesylate in concentrated aqueous SBECD solution (concentration, HPLC potency)
Format: physicochemical
Description: This particular example employs a high concentration of SBECD to form an aqueous solution of ziprasidone at about 80 mgA/ml with about 56% SBECD. To facilitate drug dissolution, a pre-weighed amount of SBECD (gram weight SBECD equivalent to ml of depot formulation being prepared) was dissolved in water by heating in a water bath at 50° C. Ziprasidone mesylate was added in about 50 mg increments while heat was supplied to maintain the system at 50-60° C. A total of 572.99 mg Ziprasidone mesylate was added to 3 ml of 100% SBECD solution resulting in formation of 140 mgA/ml (191 mg/ml) clear viscous solution. The above solution was cooled to room temperature, and the solution remained clear for 2 weeks. Due to volume expansion, the final concentration of ziprasidone was about 80 mgA/ml with 56% cyclodextrin.
The stock solution was prepared using the same method as described above, however due to the higher solution volume (20 ml), the dissolution time was much longer (over 4 hours) even though micronized ziprasidone mesylate was used. During compounding, significant volume expansion was noted. To correct for the volume expansion, the specific gravity of the solution was determined to be 1.188 gm/ml. The volume of water used to prepare this solution was 20 ml, however, the final volume of the solution was 36.6 ml, and the weight of the solution was 43.5 gm. Therefore, taking into consideration 83% volume expansion, the corrected concentrations of drug and SBECD in this solution are 77 mgA/ml and 55% w/v, respectively.
The extent of solubilization was further confirmed by preparation of 82 mgA/ml ziprasidone solution with 59% SBECD using the same method. Viscosity was greater than 160 cps.

- corrected concentration of drug in solution (55% w/v SBECD, corrected for 83% volume expansion, scaled-up stock solution): 77 mgA/ml
- potency of solution by HPLC potency method (scaled-up stock solution, 55% w/v SBECD): 75 mgA/ml
- final concentration of ziprasidone in clear aqueous solution (with 56% cyclodextrin (SBECD), after volume expansion): about 80 mgA/ml
SMILES: O=C1Cc2cc(CCN3CCN(c4nsc5ccccc45)CC3)c(Cl)cc2N1 [ziprasidone]
